Target: T1, Regulator of G-protein signaling 7 (Homo sapiens, UniProt P49802)
T1 sequence (P49802 whole entry): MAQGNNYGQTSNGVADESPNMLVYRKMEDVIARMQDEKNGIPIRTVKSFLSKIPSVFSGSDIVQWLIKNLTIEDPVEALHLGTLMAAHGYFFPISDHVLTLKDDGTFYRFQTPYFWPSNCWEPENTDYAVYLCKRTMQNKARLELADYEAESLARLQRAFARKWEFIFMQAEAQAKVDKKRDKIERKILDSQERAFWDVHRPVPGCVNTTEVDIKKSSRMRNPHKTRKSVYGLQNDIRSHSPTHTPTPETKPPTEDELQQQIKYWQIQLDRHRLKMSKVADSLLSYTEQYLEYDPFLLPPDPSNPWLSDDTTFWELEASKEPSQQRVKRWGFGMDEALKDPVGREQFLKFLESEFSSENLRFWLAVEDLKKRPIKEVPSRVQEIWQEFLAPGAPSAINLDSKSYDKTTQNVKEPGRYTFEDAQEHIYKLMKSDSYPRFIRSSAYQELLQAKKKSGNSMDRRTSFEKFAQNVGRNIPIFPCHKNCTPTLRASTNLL
Test: small molecules altering RGS7 interaction with Galphao – biochemical, multiplexed bead flow cytometry, SAR compounds, SAR follow-up (AID 2296)

Ki: 0.12 µM
SMILES: NS(=O)(=O)c1ccc(N=NCc2ccc(O)c(O)c2O)c([N+](=O)[O-])c1 [4-[[(E)-(2,3-dihydroxy-4-oxo-1-cyclohexa-2,5-dienylidene)methyl]hydrazo]-3-nitrobenzenesulfonamide]

Source: BindingDB's records for doi:10.7270/Q20863RR (Nmmlsc, 2010)
